These are literature values, as cited in patent US20090246262A1, “EASILY APPLIED FIELD DRESSING FOR WOUNDS” (Valor Medical, Inc., priority 2008, published 2009).

For data set [1] the following is noted: in vivo.
The conditions of data set [2]: upon contact with moist tissues.

Regarding `C=C(C#N)C(=O)OC` [Eastman 910], in data set [1], the histotoxicity result is “histotoxic”.
With `C=C(C#N)C(=O)OCC` [ethyl], the histotoxicity result in data set [1] is listed as “histotoxic”.
As for `C=C(C#N)C(=O)OC` [methyl homolog, methyl cyanoacrylate], in data set [2], the “time to polymerize (remains as a monomer)” value was 30 to 55 s. The histotoxicity entry in data set [1] is given as “histoxicity severely limited its clinical usefulness”.
